{
  "source": "paper PMC10180349",
  "about": "(Molecules, 2023)",
  "key": {"[1]": {"test": "Organ-body indices and signs of toxicity in the xenograft model", "conditions": "q3d, 3 weeks"}, "MDA-MB-231 cells": {"system": "MDA-MB-231 cells", "test": "Transmission electron microscopy of treated cells", "assay_type": "cell-based, Human", "conditions": "MDA-MB-231, 0.1 nM, 48 h", "protocol": "Ultrathin sections were isolated, stained with uranyl acetate and lead citrate for 10 min, and finally observed through the Hitachi H-7650 transmission electron microscope (Tokyo, Japan). The PTX-treated group was used as a positive control."}, "[2]": {"test": "Solubility experiment in water"}, "MCF 10A": {"system": "MCF 10A", "assay_type": "cell-based", "conditions": "Homo sapiens, 48 h"}, "[3]": {"test": "Acute-toxicity experiment, single dose via tail vein"}, "MDA-MB-231": {"system": "MDA-MB-231", "test": "cells", "conditions": "Homo sapiens, MDA-MB-231, 48 h"}, "[4]": {"system": "MDA-MB-231 xenograft breast tumor model", "test": "In vivo antitumor assay", "conditions": "medium dose 10.30 mg/kg (MPTX-TTHA), q3d, tail vein, 21 days"}},
  "data": [
    {"smiles": "CC(=O)O[C@H]1C(=O)[C@@]2(C)[C@H]([C@H](OC(=O)c3ccccc3)[C@]3(O)C[C@H](OC(=O)[C@H](OC(=O)CN(CCN(CCN(CCN(CC(=O)O)CC(=O)O)CC(=O)O)CC(=O)O)CC(=O)O)[C@@H](NC(=O)c4ccccc4)c4ccccc4)C(C)=C1C3(C)C)[C@]1(OC(C)=O)CO[C@@H]1C[C@@H]2O", "note": "[PTX-TTHA, 3,6,9,12-Tetraazatetradecanedioic acid, 3,6,9,12-tetrakis(carboxymethyl)-1-[2-(benzoylamino)-1-[[[6,12b-bis(acetyloxy)-12-(benzoyloxy)-2a,3,4,4a,5,6,9,10,11,12,12a,12b-dodecahydro-4,11-dihydroxy-4a,8,13,13-tetramethyl-5-oxo-7,11-methano-1H-cyclodeca [3, 4]benz [1,2-b]oxet-9-yl]oxy]carbonyl]-2-phenylethyl] ester]", "values": [
      {"measurement": "signs of toxicity during treatment", "setting": "[1]; 6.87, 10.30, 13.73 mg/kg, tail vein", "value": "No noticeable signs of toxicity were observed"},
      {"measurement": "organ-body index, Heart", "setting": "[1]; HPTX-TTHA, 13.73 mg/kg", "value": "5.56 ± 0.49", "unit": "mg/g"},
      {"measurement": "organ-body index, Kidney", "setting": "[1]; HPTX-TTHA, 13.73 mg/kg", "value": "16.09 ± 0.50", "unit": "mg/g"},
      {"measurement": "organ-body index, Liver", "setting": "[1]; HPTX-TTHA, 13.73 mg/kg", "value": "63.73 ± 5.63", "unit": "mg/g"},
      {"measurement": "organ-body index, Lung", "setting": "[1]; HPTX-TTHA, 13.73 mg/kg", "value": "7.28 ± 0.73", "unit": "mg/g"},
      {"measurement": "organ-body index, Spleen", "setting": "[1]; HPTX-TTHA, 13.73 mg/kg", "value": "6.20 ± 0.65", "unit": "mg/g"},
      {"measurement": "organ-body index, Heart", "setting": "[1]; LPTX-TTHA, 6.87 mg/kg", "value": "5.56 ± 0.63", "unit": "mg/g"},
      {"measurement": "organ-body index, Kidney", "setting": "[1]; LPTX-TTHA, 6.87 mg/kg", "value": "16.03 ± 0.49", "unit": "mg/g"},
      {"measurement": "organ-body index, Liver", "setting": "[1]; LPTX-TTHA, 6.87 mg/kg", "value": "63.63 ± 4.54", "unit": "mg/g"},
      {"measurement": "organ-body index, Lung", "setting": "[1]; LPTX-TTHA, 6.87 mg/kg", "value": "7.29 ± 0.79", "unit": "mg/g"},
      {"measurement": "organ-body index, Spleen", "setting": "[1]; LPTX-TTHA, 6.87 mg/kg", "value": "6.35 ± 0.51", "unit": "mg/g"},
      {"measurement": "organ-body index, Heart", "setting": "[1]; MPTX-TTHA, 10.30 mg/kg", "value": "5.49 ± 0.15", "unit": "mg/g"},
      {"measurement": "organ-body index, Kidney", "setting": "[1]; MPTX-TTHA, 10.30 mg/kg", "value": "16.05 ± 0.47", "unit": "mg/g"},
      {"measurement": "organ-body index, Liver", "setting": "[1]; MPTX-TTHA, 10.30 mg/kg", "value": "63.20 ± 5.17", "unit": "mg/g"},
      {"measurement": "organ-body index, Lung", "setting": "[1]; MPTX-TTHA, 10.30 mg/kg", "value": "7.16 ± 0.61", "unit": "mg/g"},
      {"measurement": "organ-body index, Spleen", "setting": "[1]; MPTX-TTHA, 10.30 mg/kg", "value": "6.16 ± 1.05", "unit": "mg/g"},
      {"measurement": "morphological changes of apoptosis (TEM)", "setting": "MDA-MB-231 cells", "value": "remarkable cellular apoptosis-related characteristics were observed"},
      {"measurement": "appearance of sample in water (solubility by photograph)", "setting": "[2]; diluted to 5 mg/mL by water", "value": "completely clear"},
      {"measurement": "water solubility, fold higher than that of paclitaxel", "setting": "[2]; water", "value": "about 7140 fold"},
      {"measurement": "IC50", "setting": "MCF 10A", "value": "367 ± 8.2", "unit": "nM"},
      {"measurement": "histopathology of main organs (H&E)", "setting": "[3]; 138.6 mg/kg, single dose", "value": "No histological alterations were observed"},
      {"measurement": "body weight change compared with controls", "setting": "[3]; 138.6 mg/kg, single dose, day 2, normal thereafter", "value": "slight weight loss"},
      {"measurement": "blood biochemical and hematological test index values compared with control", "setting": "[3]; 138.6 mg/kg, single dose, day 3 and day 14", "value": "no significant differences"},
      {"measurement": "toxic signs after administration", "setting": "[3]; 138.6 mg/kg, single dose, tail vein, 14 days", "value": "none of these toxic signs were observed"},
      {"measurement": "acute toxicity on vital organs, hematological, and biochemical parameters", "setting": "[3]; limit dose 138.6 mg/kg, i.v.", "value": "no sign of acute toxicity"},
      {"measurement": "IC50", "setting": "MDA-MB-231", "value": "12.7 ± 1.34", "unit": "nM"},
      {"measurement": "tumor inhibition rate", "setting": "[4]", "value": "~70.51", "unit": "%"}
    ]}
  ]
}
